# In ChEMBL document CHEMBL3576765, “Rubrumazines A-C, Indolediketopiperazines of the Isoechinulin Class from Eurotium rubrum MA-150, a Fungus Obtained from Marine Mangrove-Derived Rhizospheric Soil” (J Nat Prod, 2015):
# Test system: not listed separately
# Assay: (§1) Toxicity in brine shrimp assessed as mortality
# Format: organism-based
# Conditions: artemia salina, in vivo; read-out: LD50 (the source's name); call rule not given here
row,SMILES,LC50
1,C=CC(C)(C)c1[nH]c2ccc(CC=C(C)C)cc2c1/C=C1\NC(=O)[C@H](C)NC1=O [ISOECHINULIN A],11.7 µM
2,C[C@@H]1NC(=O)[C@H](Cc2c[nH]c3ccccc23)NC1=O,25.5 µM
3,C=CC(C)(C)c1[nH]c2ccccc2c1/C=C1\NC(=O)C2(C=C3c4cc(O)cc(O)c4C(=O)c4c(O)cc(C)c(c43)O2)NC1=O (stereo unspecified),16.7 µM
4,C=CC(C)(C)c1[nH]c2c(CC=C(C)C)cccc2c1/C=C1\NC(=O)[C@H](C)NC1=O [VARIECOLORIN G],22 µM
5,C=CC(C)(C)c1[nH]c2ccc(CC(=O)C(C)C)cc2c1/C=C1\NC(=O)[C@H](C)NC1=O [VARIECOLORIN E],24 µM
6,C=CC(C)(C)c1[nH]c2ccccc2c1/C=C1\NC(=O)C(=O)NC1=O,3.9 µM
7,C=CC(C)(C)c1[nH]c2c(C[C@H](O)C(C)(C)O)cccc2c1C[C@@H]1NC(=O)[C@H](C)NC1=O,16.5 µM
8,C=CC(C)(C)c1[nH]c2c(CC=C(C)C)cc(CC=C(C)C)c(CC=C(C)C)c2c1/C=C1\NC(=O)[C@H](C)NC1=O,3.5 µM
9,C=CC(C)(C)c1[nH]c2ccccc2c1/C=C1\NC(=O)C2(C=C3c4cc(O)cc(OC)c4C(=O)c4c(O)cc(C)c(c43)O2)NC1=O (stereo unspecified),9.8 µM
10,C=CC(C)(C)c1[nH]c2c(C[C@H](O)C(C)(C)O)cccc2c1/C=C1\NC(=O)[C@H](C)NC1=O,2.4 µM
11,COc1cc2c(c(OC)c1OC)-c1ccc(OC)c(=O)cc1[C@@H](NC(C)=O)CC2 [COLCHICINE],19.4 µM
12,C=CC(C)(C)c1[nH]c2c(C[C@H](O)C(C)(C)OC)cccc2c1/C=C1\NC(=O)[C@H](C)NC1=O,29.8 µM

# Test system: Artemia salina
# Assay: as §1
# Format: organism-based
# Conditions: in vivo
row,SMILES,LD50
1,C=CC(C)(C)c1[nH]c2ccc(CC=C(C)C)cc2c1C[C@@H]1NC(=O)[C@H](C)NC1=O [TARDIOXOPIPERAZINE A],Not Active
2,C=CC(C)(C)c1[nH]c2ccc(CC=C(C)C)c(CC=C(C)C)c2c1C[C@@H]1NC(=O)[C@H](C)NC1=O [VARIECOLORIN L],Not Active
3,C=CC(C)(C)c1[nH]c2c(CC=C(C)C)cc(CC=C(C)C)cc2c1C[C@@H]1NC(=O)[C@H](C)NC1=O [ECHINULIN],Not Active

# Test system: Vibrio alginolyticus
# Assay: Antibacterial activity against Vibrio alginolyticus by well diffusion method
# Format: functional
# Conditions: not given
row,MIC,SMILES
1,4 µg/mL,O=C(N[C@H](CO)[C@H](O)c1ccc([N+](=O)[O-])cc1)C(Cl)Cl [CHLORAMPHENICOL]
